Target: T1, ATP phosphoribosyltransferase (Mycobacterium tuberculosis (strain ATCC 25618 / H37Rv), UniProt P9WMN1)
T1 sequence (P9WMN1 whole entry): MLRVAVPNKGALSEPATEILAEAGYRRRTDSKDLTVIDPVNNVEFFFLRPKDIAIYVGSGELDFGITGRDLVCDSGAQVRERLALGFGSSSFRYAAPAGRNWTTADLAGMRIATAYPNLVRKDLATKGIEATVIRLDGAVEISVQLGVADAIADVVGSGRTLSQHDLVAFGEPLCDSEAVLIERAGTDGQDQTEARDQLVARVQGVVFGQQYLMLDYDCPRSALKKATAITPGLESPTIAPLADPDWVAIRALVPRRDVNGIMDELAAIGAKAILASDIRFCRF
Test: Enzyme Inhibition Assay
Details: pH 8.5; 22 °C
Experimental: Inhibition activity was determined using an assay that followed the production of PR-ATP spectrophotometrically. Enzymatic reaction was initiated by adding the substrate PRPP to reaction mixtures containing HisG enzyme and test compounds, and absorbance of product was monitored at 290 nm for 5 min until it formed a plateau.

Row | SMILES | IC50 [µM]
1 | COc1ccc(COC(=O)C2=C(C)N=C3CC(c4cccs4)CC(=O)C3C2c2cccs2)cc1 (configuration not stated) [(4-methoxyphenyl)methyl 2-methyl-5-oxo-4,7-bis(thiophen-2-yl)-1,4,5,6,7,8-hexahydroquinoline-3-carboxylate] | 10
2 | O=C(CSc1nnc(-c2ccccc2)c(-c2ccccc2)n1)Nc1nccs1 [2-[(5,6-diphenyl-1,2,4-triazin-3-yl)sulfanyl]-N-(1,3-thiazol-2-yl)acetamide] | 4
